In patent US8367658B2, “Pyrazin-2-yl-pyridin-2-yl-amine and pyrazin-2-yl-pyrimidin-4-yl-amine compounds and their use” (Cancer Research Technology Limited, priority 2007, dated 2013):
Values joined by “and” are separate entries in the source; they are usually repeats but may differ in a detail not shown here. Equal values may be shown once.

Target: T1, CHK1 (Homo sapiens, UniProt O14757)
T1 sequence (O14757 1-476): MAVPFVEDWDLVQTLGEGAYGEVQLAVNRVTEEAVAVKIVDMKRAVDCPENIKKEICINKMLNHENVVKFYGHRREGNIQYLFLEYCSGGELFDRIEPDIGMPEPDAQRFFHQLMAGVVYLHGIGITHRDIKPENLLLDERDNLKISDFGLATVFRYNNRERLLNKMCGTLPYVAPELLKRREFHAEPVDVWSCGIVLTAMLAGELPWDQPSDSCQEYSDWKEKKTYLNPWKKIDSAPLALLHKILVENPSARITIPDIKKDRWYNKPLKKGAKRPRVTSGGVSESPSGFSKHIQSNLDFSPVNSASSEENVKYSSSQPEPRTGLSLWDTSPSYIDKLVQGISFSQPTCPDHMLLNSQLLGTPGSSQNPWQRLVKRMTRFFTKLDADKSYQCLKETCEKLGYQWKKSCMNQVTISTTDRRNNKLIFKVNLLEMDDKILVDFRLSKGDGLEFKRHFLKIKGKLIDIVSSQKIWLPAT
Test: CHK1 kinase function inhibition assay (DELFIA, phosphorylation of a CDC25C peptide)
Assay type: biochemical
Settings: CHK1 1 nM, ATP 30 μM, 30 minutes at room temperature
Protocol: Measurement of Inhibition of CHK1 Kinase Function
CHK1 kinase function was measured in a DELFIA® assay in order to monitor phosphorylation of a CDC25C peptide using a specific phospho antibody.
The reaction mixture was incubated for 30 minutes at room temperature and then stopped by the addition of buffer (125 μL) containing 40 mM EDTA, 0.05% Tween 20, 0.1% BSA in TBS (10× concentrate, Sigma). An aliquot (100 μL) of the stopped reaction mixture was transferred to a black neutravidin-coated plate (Perbio) and incubated for 1 hour on a shaker (Titertek, Flow Laboratories) at room temperature. […] The plates were washed a further four times with wash buffer before the addition of enhancement solution (100 μL/well, PerkinElmer Life Sciences).

SMILES | IC50
N#Cc1cnc(Nc2cc(NCC3CCCNC3)c(N3CCC(O)C3)cn2)cn1 (stereo in doubt) [Compound Y-061, 5-(5-(3-Hydroxypyrrolidin-1-yl)-4-((R)-piperidin-3-ylmethylamino)pyridin-2-ylamino) pyrazine-2-carbonitrile] | ≤ 0.1 µM
COC(=O)c1cnc(Nc2cnc(C#N)cn2)cc1N[C@H]1CC2CC[C@H](C1)N2C(=O)OC(C)(C)C (stereo in doubt) [Compound Y-074, (1R,5R)-tert-Butyl 3-(2-(5-cyanopyrazin-2-ylamino)-5-(methoxycarbonyl)pyridin-4-ylamino)-8-azabicyclo[3.2.1]octane-8-carboxylate] | 1 to 10 µM
N#Cc1cnc(Nc2cc(NCC3CCNCC3)c(N)cn2)cn1 [Compound Y-001, 5-(5-Amino-4-(piperidin-4-ylmethylamino)pyridin-2-ylamino)pyrazine-2-carbonitrile] | ≤ 1 µM and 0.1 to 1 µM
N#Cc1cnc(Nc2cc(NCCN)c(N)cn2)cn1 [Compound Y-003, 5-(5-Amino-4-(2-aminoethylamino)pyridin-2-ylamino)pyrazine-2-carbonitrile] | ≤ 1 µM and 0.66 µM and 0.1 to 1 µM
CN(C)CCNc1cc(Nc2cnc(C#N)cn2)ncc1N [Compound Y-004, 5-(5-Amino-4-(2-(dimethylamino)ethylamino)pyridin-2-ylamino)pyrazine-2-carbonitrile] | 1 to 10 µM
N#Cc1cnc(Nc2cc(NC3CCNCC3)c(N)cn2)cn1 [Compound Y-005, 5-(5-Amino-4-(piperidin-4-ylamino)pyridin-2-ylamino)pyrazine-2-carbonitrile] | ≤ 1 µM and 0.1 to 1 µM
CN1C2CCC1CC(Nc1cc(Nc3cnc(C#N)cn3)ncc1N)C2 (stereo not shown) [Compound Y-006, 5-(5-Amino-4-(8-methyl-8-aza-bicyclo[3.2.1]octan-3-ylamino)-pyridin-2-ylamino)pyrazine-2-carbonitrile] | 1 to 10 µM
CN1CCC(Nc2cc(Nc3cnc(C#N)cn3)ncc2N)CC1 [Compound Y-007, 5-(5-Amino-4-(1-methylpiperidin-4-ylamino)pyridin-2-ylamino)pyrazine-2-carbonitrile] | ≤ 0.1 µM
N#Cc1cnc(Nc2cc(N[C@@H]3CCCNC3)c(N)cn2)cn1 [Compound Y-008, (R)-5-(5-Amino-4-(piperidin-3-ylamino)pyridin-2-ylamino)pyrazine-2-carbonitrile] | ≤ 1 µM and 0.1 to 1 µM
N#Cc1cnc(Nc2cc(N[C@H]3CCCNC3)c(N)cn2)cn1 [Compound Y-009, (S)-5-(5-Amino-4-(piperidin-3-ylamino)pyridin-2-ylamino)pyrazine-2-carbonitrile] | 1 to 10 µM
CN(C)CC(=O)Nc1cnc(Nc2cnc(C#N)cn2)cc1NCC1CCNCC1 [Compound Y-010, N-(6-(5-Cyanopyrazin-2-ylamino)-4-(piperidin-4-ylmethylamino)pyridin-3-yl)-2-(dimethylamino)acetamide] | ≤ 1 µM and 0.1 to 1 µM
N#Cc1cnc(Nc2cc(NCC3CCNCC3)c(NC(=O)CCN3CCCCC3)cn2)cn1 [Compound Y-011, N-(6-(5-Cyanopyrazin-2-ylamino)-4-(piperidin-4-ylmethylamino)pyridin-3-yl)-3-(piperidin-1-yl)propanamide] | 1 to 10 µM
COc1ccc(CCC(=O)Nc2cnc(Nc3cnc(C#N)cn3)cc2NCC2CCNCC2)cc1 [Compound Y-012, N-(6-(5-Cyanopyrazin-2-ylamino)-4-(piperidin-4-ylmethylamino)pyridin-3-yl)-3-(4-methoxyphenyl)propanamide] | 1 to 10 µM
COc1ccc(CC(=O)Nc2cnc(Nc3cnc(C#N)cn3)cc2NCC2CCNCC2)cc1 [Compound Y-013, N-(6-(5-Cyanopyrazin-2-ylamino)-4-(piperidin-4-ylmethylamino)pyridin-3-yl)-2-(4-methoxyphenyl)acetamide] | 1 to 10 µM
CN(C)CC(=O)Nc1cnc(Nc2cnc(C#N)cn2)cc1NC1CC2CCC(C1)N2C (stereo not shown) [Compound Y-015, N-(6-(5-Cyanopyrazin-2-ylamino)-4-(8-methyl-8-aza-bicyclo[3.2.1]octan-3-ylamino)pyridin-3-yl)-2-(dimethylamino)acetamide] | 1 to 10 µM
CN(C)CC(=O)Nc1cnc(Nc2cnc(C#N)cn2)cc1NC1CCNCC1 [Compound Y-016, N-(6-(5-Cyanopyrazin-2-ylamino)-4-(piperidin-4-ylamino)pyridin-3-yl)-2-(dimethylamino)acetamide] | ≤ 1 µM and 0.1 to 1 µM
COC(=O)c1cnc(Nc2cnc(C#N)cn2)cc1N(C)CC1CCNCC1 [Compound Y-021, Methyl 6-(5-cyanopyrazin-2-ylamino)-4-(methyl(piperidin-4-ylmethyl)amino)nicotinate] | ≤ 0.1 µM

SMILES | IC50
COC(=O)c1cnc(Nc2cnc(C#N)cn2)cc1NC(C)C1CCNCC1 (stereo not shown) [Compound Y-022, Methyl 6-(5-cyanopyrazin-2-ylamino)-4-(1-(piperidin-4-yl)ethylamino)nicotinate] | ≤ 0.1 µM
COC(=O)c1cnc(Nc2cnc(C#N)cn2)cc1NC1CC(C)(C)N(C)C(C)(C)C1 [Compound Y-024, Methyl 6-(5-cyanopyrazin-2-ylamino)-4-(1,2,2,6,6-pentamethylpiperidin-4-ylamino)nicotinate] | ≤ 1 µM and 0.1 to 1 µM
COC(=O)c1cnc(Nc2cnc(C#N)cn2)cc1NCC1(C)CCNCC1 [Compound Y-026, Methyl 6-(5-cyanopyrazin-2-ylamino)-4-((4-methylpiperidin-4-yl)methylamino)nicotinate] | ≤ 0.1 µM
COC(=O)c1cnc(Nc2cnc(C#N)cn2)cc1N[C@H]1CCN[C@H](C(=O)Nc2ccccc2)C1 [Compound Y-028, Methyl 6-(5-cyanopyrazin-2-ylamino)-4-((2S,4S)-2-(phenylcarbamoyl)piperidin-4-ylamino)nicotinate] | ≤ 1 µM and 0.1 to 1 µM
COC(=O)c1cnc(Nc2cnc(C#N)cn2)cc1NC1C[C@H]2CC[C@@H](C1)N2Cc1ccccc1 (stereo partly drawn) [Compound Y-029, Methyl 4-((1R,3s,5S)-8-benzyl-8-azabicyclo[3.2.1]octan-3-ylamino)-6-(5-cyanopyrazin-2-ylamino)nicotinate] | ≤ 0.1 µM
COC(=O)c1cnc(Nc2cnc(C#N)cn2)cc1N[C@H]1C[C@H]2CC[C@@H](C1)N2Cc1ccccc1 [Compound Y-030, Methyl 4-((1R,3r,5S)-8-benzyl-8-azabicyclo[3.2.1]octan-3-ylamino)-6-(5-cyanopyrazin-2-ylamino)nicotinate] | 1 to 10 µM
COC(=O)c1cnc(Nc2cnc(C#N)cn2)cc1NCC1(C)COC1 [Compound Y-031, Methyl 6-(5-cyanopyrazin-2-ylamino)-4-((3-methyloxetan-3-yl)methylamino)nicotinate] | ≤ 1 µM and 0.1 to 1 µM
CCNC(=O)c1cnc(Nc2cnc(C#N)cn2)cc1NC1CC2CCC(C1)N2C (stereo not shown) [Compound Y-034, 6-(5-Cyanopyrazin-2-ylamino)-N-ethyl-4-(8-methyl-8-azabicyclo[3.2.1]octan-3-ylamino)nicotinamide] | ≤ 1 µM and 0.1 to 1 µM
COC(=O)c1cnc(Nc2cnc(C)cn2)cc1NCC1CCNCC1 [Compound Y-036, Methyl 6-(5-methylpyrazin-2-ylamino)-4-(piperidin-4-ylmethylamino)nicotinate] | ≤ 1 µM and 0.1 to 1 µM
COC(=O)c1cnc(Nc2cnc(OC)cn2)cc1NC1CC2CCC(C1)N2C (stereo not shown) [Compound Y-037, Methyl 6-(5-methoxypyrazin-2-ylamino)-4-(8-methyl-8-azabicyclo[3.2.1]octan-3-ylamino)nicotinate] | ≤ 0.1 µM
N#Cc1cnc(Nc2cc(OCC3CCNCC3)c(N)cn2)cn1 [Compound Y-038, 5-(5-Amino-4-(piperidin-4-ylmethoxy)pyridin-2-ylamino)pyrazine-2-carbonitrile] | 1 to 10 µM
CN(C)CC(=O)Nc1cnc(Nc2cnc(C#N)cn2)cc1OCC1CCNCC1 [Compound Y-039, N-(6-(5-Cyanopyrazin-2-ylamino)-4-(piperidin-4-ylmethoxy)pyridin-3-yl)-2-(dimethylamino)acetamide] | 1 to 10 µM
CN1CCC(Nc2cc(Nc3cnc(C#N)cn3)ncc2[N+](=O)[O-])CC1 [Compound Y-040, 5-(4-(1-Methylpiperidin-4-ylamino)-5-nitropyridin-2-ylamino)pyrazine-2-carbonitrile] | ≤ 0.1 µM
N#Cc1cnc(Nc2cc(NCC3CCCNC3)c(N)cn2)cn1 (stereo not shown) [Compound Y-041, 5-(5-Amino-4-(piperidin-3-ylmethylamino)pyridin-2-ylamino)pyrazine-2-carbonitrile] | ≤ 0.1 µM
N#Cc1cnc(Nc2cc(NCCCN)c(N)cn2)cn1 [Compound Y-042, 5-(5-Amino-4-(3-aminopropylamino)pyridin-2-ylamino)pyrazine-2-carbonitrile] | ≤ 0.1 µM
CN(C)CC(=O)Nc1cnc(Nc2cnc(C#N)cn2)cc1N[C@@H]1CCCNC1 [Compound Y-043, (R)—N-(6-(5-Cyanopyrazin-2-ylamino)-4-(piperidin-3-ylamino)pyridin-3-yl)-2-(dimethylamino)acetamide] | 0.1 to 1 µM
CN(C)CC(=O)Nc1cnc(Nc2cnc(C#N)cn2)cc1NCC1CCCNC1 (stereo not shown) [Compound Y-044, N-(6-(5-Cyanopyrazin-2-ylamino)-4-(piperidin-3-ylmethylamino)pyridin-3-yl)-2-(dimethylamino)acetamide] | 0.1 to 1 µM
